Measurements published in PubChem BioAssay (NCI).
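Results reflect a 48-hour exposure of cells in 96-well plates to compound at five concentrations. At the TGI there is no net growth.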

What was measured:
Experiment in all cases: NCI anticancer screen, dose series, 48 h
[1] = system: SF-268 CNS
[2] = system: M14 melanoma
[3] = system: OVCAR-4 ovarian
[4] = system: EKVX NSCLC
[5] = system: PC-3 prostate
[6] = system: SNB-19 CNS
[7] = system: ACHN renal
[8] = system: KM12 colon
[9] = system: HCT-15 colon
[10] = system: IGROV1 ovarian
[11] = system: HOP-92 NSCLC
[12] = system: NCI/ADR-RES ovarian
[13] = system: HCC-2998 colon
[14] = system: 786-0 renal
[15] = system: SF-539 CNS
[16] = system: UACC-257 melanoma
[17] = system: MDA-MB-435
[18] = system: LOX IMVI melanoma
[19] = system: MDA-MB-231 breast
[20] = system: SK-MEL-5 melanoma
[21] = system: OVCAR-3 ovarian
[22] = system: SK-MEL-2 melanoma
[23] = system: NCI-H460 lung
[24] = system: MCF7 breast
[25] = system: NCI-H23 lung
[26] = system: HOP-62 NSCLC
[27] = system: RXF 393 renal
[28] = system: OVCAR-5 ovarian
[29] = system: A549 NSCLC
[30] = system: DU-145 prostate
[31] = system: NCI-H522 lung
[32] = system: SK-MEL-28 melanoma
[33] = system: MOLT-4 leukemia
[34] = system: RPMI-8226 leukemia
[35] = system: SK-OV-3 ovarian
[36] = system: SW-620 colon
[37] = system: OVCAR-8 ovarian
[38] = system: A498 renal
[39] = system: COLO 205 colon
[40] = system: NCI-H226 lung
[41] = system: MALME-3M melanoma
[42] = system: UO-31 renal
[43] = system: HCT-116 colon
[44] = system: UACC-62 melanoma
[45] = system: K-562 leukemia
[46] = system: BT-549 breast
[47] = system: MDA-N
[48] = system: SN12C renal
[49] = system: U251 CNS
[50] = system: CCRF-CEM leukemia
[51] = system: T-47D breast
[52] = system: SF-295 CNS
[53] = system: HL-60(TB) leukemia
[54] = system: HT29 colon
[55] = system: TK-10 renal
[56] = system: CAKI-1 renal
[57] = system: SNB-75 CNS
[58] = system: SR leukemia
[59] = system: HS 578T breast

CSC1=C(C)C(/C=N/Nc2ccc([N+](=O)[O-])cc2)=C(C)N(c2ccccc2)S1(=O)=O
TGI [1]: > 100 µM | TGI [2]: > 100 µM | TGI [3]: > 100 µM | TGI [4]: > 100 µM | TGI [5]: > 100 µM | TGI [6]: > 100 µM | TGI [7]: > 100 µM | TGI [8]: > 100 µM | TGI [9]: > 100 µM | TGI [10]: > 100 µM | TGI [11]: > 100 µM | TGI [12]: > 100 µM | TGI [13]: > 100 µM | TGI [14]: > 100 µM | TGI [15]: > 100 µM | TGI [16]: > 100 µM | TGI [17]: > 100 µM | TGI [18]: > 100 µM | TGI [19]: > 100 µM | TGI [20]: > 100 µM | TGI [21]: > 100 µM | TGI [22]: > 100 µM | TGI [23]: > 100 µM | TGI [24]: > 100 µM | TGI [25]: > 100 µM | TGI [26]: > 100 µM | TGI [27]: > 100 µM | TGI [28]: > 100 µM | TGI [29]: > 100 µM | TGI [30]: > 100 µM | TGI [31]: > 100 µM | TGI [32]: > 100 µM | TGI [33]: > 100 µM | TGI [34]: > 100 µM | TGI [35]: > 100 µM | TGI [36]: > 100 µM | TGI [37]: > 100 µM | TGI [38]: > 100 µM | TGI [39]: > 100 µM | TGI [40]: > 100 µM | TGI [41]: > 100 µM | TGI [42]: > 100 µM | TGI [43]: > 100 µM | TGI [44]: > 100 µM | TGI [45]: > 100 µM | TGI [46]: > 100 µM | TGI [47]: > 100 µM | TGI [48]: > 100 µM | TGI [49]: > 100 µM | TGI [50]: > 100 µM | TGI [51]: > 100 µM | TGI [52]: > 100 µM | TGI [53]: 17.5 µM | TGI [54]: > 100 µM | TGI [55]: > 100 µM | TGI [56]: > 100 µM | TGI [57]: > 100 µM | TGI [58]: > 100 µM

CCOC(=O)CC1C(C(=O)OCC)=Cn2c([nH]c3cccc4cccc2c43)=C1C(=O)OCC (stereo unspecified)
TGI [2]: > 100 µM | TGI [3]: > 100 µM | TGI [4]: > 100 µM | TGI [5]: > 100 µM | TGI [6]: > 100 µM | TGI [7]: > 100 µM | TGI [8]: > 100 µM | TGI [9]: > 100 µM | TGI [10]: > 100 µM | TGI [11]: > 100 µM | TGI [12]: > 100 µM | TGI [13]: > 100 µM | TGI [14]: > 100 µM | TGI [16]: > 100 µM | TGI [17]: > 100 µM | TGI [18]: > 100 µM | TGI [20]: > 100 µM | TGI [21]: > 100 µM | TGI [22]: > 100 µM | TGI [23]: > 100 µM | TGI [24]: > 100 µM | TGI [25]: > 100 µM | TGI [26]: > 100 µM | TGI [27]: > 100 µM | TGI [28]: > 100 µM | TGI [29]: > 100 µM | TGI [30]: > 100 µM | TGI [32]: > 100 µM | TGI [33]: > 100 µM | TGI [34]: > 100 µM | TGI [35]: > 100 µM | TGI [36]: > 100 µM | TGI [37]: > 100 µM | TGI [38]: > 100 µM | TGI [39]: > 100 µM | TGI [40]: > 100 µM | TGI [42]: > 100 µM | TGI [43]: > 100 µM | TGI [44]: > 100 µM | TGI [45]: > 100 µM | TGI [46]: > 100 µM | TGI [47]: > 100 µM | TGI [48]: > 100 µM | TGI [49]: > 100 µM | TGI [50]: > 100 µM | TGI [51]: > 100 µM | TGI [52]: > 100 µM | TGI [53]: > 100 µM | TGI [54]: > 100 µM | TGI [55]: > 100 µM | TGI [56]: > 100 µM | TGI [57]: > 100 µM | TGI [58]: > 100 µM

CC(C)NC(=O)OCCN=C1c2ccccc2C(Br)C(Br)c2ccccc21 (stereo unspecified)
TGI [1]: 38.7 µM | TGI [2]: 16.2 µM | TGI [3]: 33.6 µM | TGI [4]: 59.2 µM | TGI [5]: > 48.8 µM | TGI [6]: 43.3 µM | TGI [7]: 25.4 µM | TGI [8]: 45.8 µM | TGI [9]: > 69.8 µM | TGI [10]: 7.14 µM | TGI [11]: 17 µM | TGI [12]: 41.7 µM | TGI [13]: 49.8 µM | TGI [14]: 8.34 µM | TGI [15]: 9.64 µM | TGI [16]: 35.8 µM | TGI [17]: 27.2 µM | TGI [18]: 10.1 µM | TGI [59]: 31.4 µM | TGI [19]: 30.5 µM | TGI [20]: 21.1 µM | TGI [21]: 35.6 µM | TGI [22]: > 54.1 µM | TGI [23]: 32.4 µM | TGI [24]: 28.2 µM | TGI [25]: 53.8 µM | TGI [26]: 30 µM | TGI [27]: 6.66 µM | TGI [28]: 27.3 µM | TGI [29]: 62.4 µM | TGI [30]: 30 µM | TGI [31]: 3.52 µM | TGI [32]: 35.1 µM | TGI [33]: 14.9 µM | TGI [34]: 23.1 µM | TGI [35]: > 62.9 µM | TGI [36]: > 27.3 µM | TGI [37]: 24.8 µM | TGI [38]: 6.58 µM | TGI [39]: 18.9 µM | TGI [40]: 33.2 µM | TGI [41]: 17.2 µM | TGI [42]: 8.97 µM | TGI [43]: > 58.1 µM | TGI [44]: 31.1 µM | TGI [45]: 3.62 µM | TGI [46]: 29.3 µM | TGI [47]: 28.9 µM | TGI [48]: 43.4 µM | TGI [49]: 25.5 µM | TGI [50]: 1.69 µM | TGI [51]: 18.4 µM | TGI [52]: 42 µM | TGI [53]: 2.6 µM | TGI [54]: 25 µM | TGI [55]: 21.6 µM | TGI [56]: 19.7 µM | TGI [57]: 39.8 µM

COc1ccc(/C=C2\N=C3N(Cc4ccccc4)C=C(N)N3C2=O)cc1
TGI [1]: > 100 µM | TGI [2]: > 100 µM | TGI [3]: > 100 µM | TGI [4]: > 100 µM | TGI [5]: > 100 µM | TGI [6]: 48.2 µM | TGI [7]: > 100 µM | TGI [8]: > 100 µM | TGI [9]: > 100 µM | TGI [10]: > 100 µM | TGI [11]: > 100 µM | TGI [12]: > 100 µM | TGI [13]: > 100 µM | TGI [14]: > 100 µM | TGI [15]: > 100 µM | TGI [16]: > 100 µM | TGI [17]: > 100 µM | TGI [18]: > 100 µM | TGI [59]: 73 µM | TGI [19]: > 100 µM | TGI [20]: > 100 µM | TGI [21]: > 100 µM | TGI [22]: > 100 µM | TGI [23]: > 100 µM | TGI [24]: > 100 µM | TGI [25]: > 100 µM | TGI [26]: > 100 µM | TGI [27]: > 100 µM | TGI [28]: > 100 µM | TGI [29]: > 100 µM | TGI [30]: > 100 µM | TGI [31]: > 100 µM | TGI [32]: > 100 µM | TGI [33]: > 100 µM | TGI [35]: > 100 µM | TGI [36]: > 100 µM | TGI [37]: > 100 µM | TGI [38]: > 100 µM | TGI [39]: > 100 µM | TGI [40]: > 100 µM | TGI [41]: > 100 µM | TGI [42]: > 100 µM | TGI [43]: > 100 µM | TGI [44]: > 100 µM | TGI [45]: > 100 µM | TGI [46]: > 100 µM | TGI [47]: > 100 µM | TGI [48]: > 100 µM | TGI [49]: 92.3 µM | TGI [50]: > 100 µM | TGI [51]: > 100 µM | TGI [52]: > 100 µM | TGI [53]: > 100 µM | TGI [54]: > 100 µM | TGI [55]: > 100 µM | TGI [56]: > 100 µM | TGI [57]: 50.7 µM
